Data reported in ChEMBL document CHEMBL5226283, “Reactive Oxygen Species (ROS)-Responsive Prodrugs, Probes, and Theranostic Prodrugs: Applications in the ROS-Related Diseases” (J Med Chem, 2021).

Tests used:
[1] = system: A549; test: Antiproliferative activity against human A549 cells assessed as cell growth inhibition; type: functional, cell-based
[2] = system: 4T1; test: Antiproliferative activity against mouse 4T1 cells assessed as cell growth inhibition; type: functional, cell-based
[3] = system: DNA; test: Induction of ROS-mediated DNA (unknown origin) ICL formation by measuring rate constant preincubated with compounds followed by H2O2 addition; type: functional
[4] = system: DNA; test: Induction of ROS-mediated DNA (unknown origin) assessed as efficiency of ICL formation preincubated with compounds followed by H2O2 addition relative to control; type: functional
[5] = system: SR; test: Antiproliferative activity against human SR cells assessed as cell growth inhibition at 10 uM by SRB assay; type: functional; set-up: scale not given: the % may be the effect or the level left
[6] = system: NCI-H460; test: Antiproliferative activity against human NCI-H460 cells assessed as cell growth inhibition at 10 uM by SRB assay; type: functional; set-up: scale not given: the % may be the effect or the level left
[7] = system: CAKI-1; test: Antiproliferative activity against human CAKI-1 cells assessed as cell growth inhibition at 10 uM by SRB assay; type: functional; set-up: scale not given: the % may be the effect or the level left
[8] = system: SN12C; test: Antiproliferative activity against human SN12C cells assessed as cell growth inhibition at 10 uM by SRB assay; type: functional; set-up: scale not given: the % may be the effect or the level left
[9] = system: MIA PaCa-2; test: Antiproliferative activity against human MIA PaCa-2 cells assessed as cell growth inhibition; type: functional, cell-based
[10] = molecular target: Matrix metalloproteinase-9 (Homo sapiens, UniProt P14780); test: Inhibition of MMP9 (unknown origin)
[11] = system: HeLa; test: Antiproliferative activity against human HeLa cells assessed as cell growth inhibition at 12.5 uM relative to control; type: functional; set-up: scale not given: the % may be the effect or the level left
[12] = system: KB; test: Antiproliferative activity against human KB cells assessed as cell growth inhibition at 5 uM relative to control; type: functional; set-up: scale not given: the % may be the effect or the level left
[13] = system: WI-38; test: Cytotoxicity against human WI-38 cells assessed as cell growth inhibition at 5 uM relative to control; type: functional; set-up: scale not given: the % may be the effect or the level left
[14] = system: CCRF-CEM; test: Antiproliferative activity against human CCRF-CEM cells assessed as cell growth inhibition; type: functional
[15] = system: HL-60(TB); test: Antiproliferative activity against human HL-60(TB) cells assessed as cell growth inhibition; type: functional
[16] = system: MOLT-4; test: Antiproliferative activity against human MOLT-4 cells assessed as cell growth inhibition; type: functional
[17] = system: SR; test: Antiproliferative activity against human SR cells assessed as cell growth inhibition; type: functional
[18] = system: HOP-92; test: Antiproliferative activity against human HOP-92 cells assessed as cell growth inhibition; type: functional
[19] = system: NCI-H23; test: Antiproliferative activity against human NCI-H23 cells assessed as cell growth inhibition; type: functional
[20] = system: NCI-H460; test: Antiproliferative activity against human NCI-H460 cells assessed as cell growth inhibition; type: functional
[21] = system: NCI-H522; test: Antiproliferative activity against human NCI-H522 cells assessed as cell growth inhibition; type: functional
[22] = system: SF-268; test: Antiproliferative activity against human SF-268 cells assessed as cell growth inhibition; type: functional
[23] = system: SF-295; test: Antiproliferative activity against human SF-295 cells assessed as cell growth inhibition; type: functional
[24] = system: SF-539; test: Antiproliferative activity against human SF-539 cells assessed as cell growth inhibition; type: functional
[25] = system: SNB-75; test: Antiproliferative activity against human SNB-75 cells assessed as cell growth inhibition; type: functional
[26] = system: LOX IMVI; test: Antiproliferative activity against human LOX IMVI cells assessed as cell growth inhibition; type: functional
[27] = system: M14; test: Antiproliferative activity against human M14 cells assessed as cell growth inhibition; type: functional
[28] = system: UACC-257; test: Antiproliferative activity against human UACC-257 cells assessed as cell growth inhibition; type: functional
[29] = system: UACC-62; test: Antiproliferative activity against human UACC-62 cells assessed as cell growth inhibition; type: functional
[30] = system: 786-0; test: Antiproliferative activity against human 786-0 cells assessed as cell growth inhibition; type: functional
[31] = system: ACHN; test: Antiproliferative activity against human ACHN cells assessed as cell growth inhibition; type: functional
[32] = system: CAKI-1; test: Antiproliferative activity against human CAKI-1 cells assessed as cell growth inhibition; type: functional
[33] = system: RXF 393; test: Antiproliferative activity against human RXF 393 cells assessed as cell growth inhibition; type: functional
[34] = system: UO-31; test: Antiproliferative activity against human UO-31 cells assessed as cell growth inhibition; type: functional
[35] = system: DU-145; test: Antiproliferative activity against human DU-145 cells assessed as cell growth inhibition; type: functional
[36] = system: MCF7; test: Antiproliferative activity against human MCF7 cells assessed as cell growth inhibition; type: functional
[37] = system: MDA-MB-468; test: Antiproliferative activity against human MDA-MB-468 cells assessed as cell growth inhibition; type: functional
[38] = molecular target: Keap1/Nrf2 (Homo sapiens, UniProt Q14145+Q16236); test: Inhibition of Keap1-Nrf2 (unknown origin); type: protein assay
[39] = Permeability of compound by PAMPA assay; type: ADME; settings: read-out: permeability
[40] = Activation of Nrf2-ARE pathway in LPS-induced human HepG2-ARE-C8 cells; type: cell-based
[41] = Oral bioavailability in C57BL/6 mouse; type: ADME, organism-based; settings: in vivo
[42] = system: HeLa; test: Antiproliferative activity against human HeLa cells assessed as cell growth inhibition at 2 uM relative to control; type: functional; set-up: scale not given: the % may be the effect or the level left
[43] = system: A549; test: Antitumor activity against human A549 tumor spheroid cells assessed as reduction in size of tumor spheroid measured after 3 days by fluorescence microscopic analysis relative to control; type: functional; set-up: scale not given: the % may be the effect or the level left; settings: time 3 day
[44] = Cytotoxicity against human HEK293T cells assessed as cell growth inhibition

Sequence of Matrix metalloproteinase-9 (P14780 whole entry): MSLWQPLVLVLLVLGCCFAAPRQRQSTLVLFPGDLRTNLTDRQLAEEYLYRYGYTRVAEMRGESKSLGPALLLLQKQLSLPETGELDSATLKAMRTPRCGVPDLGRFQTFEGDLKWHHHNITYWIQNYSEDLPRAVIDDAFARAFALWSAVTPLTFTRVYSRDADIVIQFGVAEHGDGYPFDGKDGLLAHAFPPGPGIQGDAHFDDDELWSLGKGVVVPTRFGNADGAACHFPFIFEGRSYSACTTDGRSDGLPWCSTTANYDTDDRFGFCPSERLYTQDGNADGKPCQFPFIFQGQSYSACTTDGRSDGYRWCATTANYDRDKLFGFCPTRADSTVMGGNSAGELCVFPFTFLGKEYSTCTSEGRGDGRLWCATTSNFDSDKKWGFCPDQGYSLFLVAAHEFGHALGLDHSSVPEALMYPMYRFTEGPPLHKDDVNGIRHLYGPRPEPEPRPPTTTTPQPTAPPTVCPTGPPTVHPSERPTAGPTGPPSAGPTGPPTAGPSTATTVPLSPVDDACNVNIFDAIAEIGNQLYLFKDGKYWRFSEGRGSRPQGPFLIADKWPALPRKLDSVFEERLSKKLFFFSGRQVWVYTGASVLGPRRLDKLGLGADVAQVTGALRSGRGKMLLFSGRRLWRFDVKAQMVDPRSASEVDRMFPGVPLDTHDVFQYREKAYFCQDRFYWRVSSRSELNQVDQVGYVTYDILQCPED
Sequence of Keap1/Nrf2 (Q16236 whole entry): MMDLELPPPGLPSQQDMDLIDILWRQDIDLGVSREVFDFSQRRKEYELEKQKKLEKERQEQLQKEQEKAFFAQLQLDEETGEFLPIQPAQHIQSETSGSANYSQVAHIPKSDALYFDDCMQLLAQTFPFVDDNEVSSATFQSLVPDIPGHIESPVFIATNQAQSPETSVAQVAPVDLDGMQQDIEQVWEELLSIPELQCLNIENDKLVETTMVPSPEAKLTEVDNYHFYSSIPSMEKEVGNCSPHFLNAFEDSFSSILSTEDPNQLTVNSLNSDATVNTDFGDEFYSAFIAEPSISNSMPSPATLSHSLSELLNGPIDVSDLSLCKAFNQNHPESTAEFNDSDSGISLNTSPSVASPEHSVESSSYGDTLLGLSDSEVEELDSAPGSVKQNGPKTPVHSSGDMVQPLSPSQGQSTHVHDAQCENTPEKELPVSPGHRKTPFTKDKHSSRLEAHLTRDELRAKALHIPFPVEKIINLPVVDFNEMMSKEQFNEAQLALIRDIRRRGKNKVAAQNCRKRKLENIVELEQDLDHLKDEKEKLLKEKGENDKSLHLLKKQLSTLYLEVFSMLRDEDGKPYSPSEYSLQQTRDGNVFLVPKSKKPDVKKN
Sequence of Keap1/Nrf2 (Q14145 whole entry): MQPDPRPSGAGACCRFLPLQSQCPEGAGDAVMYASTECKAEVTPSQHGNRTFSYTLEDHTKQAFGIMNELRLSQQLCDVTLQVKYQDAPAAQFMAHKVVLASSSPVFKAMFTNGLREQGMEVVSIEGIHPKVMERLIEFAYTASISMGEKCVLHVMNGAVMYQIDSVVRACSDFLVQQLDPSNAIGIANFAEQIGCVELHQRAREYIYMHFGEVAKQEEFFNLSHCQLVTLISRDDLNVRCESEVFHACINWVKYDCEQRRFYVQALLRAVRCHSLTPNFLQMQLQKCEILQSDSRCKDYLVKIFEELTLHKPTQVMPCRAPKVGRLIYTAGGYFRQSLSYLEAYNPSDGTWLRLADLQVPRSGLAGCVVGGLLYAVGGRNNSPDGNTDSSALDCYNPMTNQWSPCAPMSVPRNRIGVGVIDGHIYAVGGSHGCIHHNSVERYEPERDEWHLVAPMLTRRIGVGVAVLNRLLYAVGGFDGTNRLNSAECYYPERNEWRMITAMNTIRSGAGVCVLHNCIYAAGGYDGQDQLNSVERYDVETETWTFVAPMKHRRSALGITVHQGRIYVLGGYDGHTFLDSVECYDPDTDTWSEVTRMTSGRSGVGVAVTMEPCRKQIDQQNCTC

CCCCC/C=C\C/C=C\CCCCCCCC(=O)OCCOC(=O)CSCC(=O)OC(C(=O)OC1C[C@@]2(O)[C@@H](OC(=O)c3ccccc3)[C@@H]3[C@]4(OC(C)=O)CO[C@@H]4C[C@H](O)[C@@]3(C)C(=O)[C@H](OC(C)=O)C(=C1C)C2(C)C)C(NC(=O)c1ccccc1)c1ccccc1 (stereo partly drawn)
IC50 [1]: 0.176 µM | IC50 [2]: 0.127 µM

CC1(C)OB(c2ccc(C[N+](C)(CCCl)CCCl)cc2)OC1(C)C.[Br-]
K [3]: 4.6 10^-5/s | Activity [4]: 43% | Activity [5]: 90% | Activity [6]: 85% | Activity [7]: 66% | Activity [8]: 57%

COc1cccc2c1C(=O)c1c(O)c3c(c(O)c1C2=O)C[C@@](O)(C(=O)CO)C[C@@H]3O[C@H]1C[C@H](NC(=O)OCc2ccc(B3OC(C)(C)C(C)(C)O3)cc2)[C@H](O)[C@H](C)O1
IC50 [9]: 0.3 µM

CC1(C)OB(c2ccc(COc3c(C(=O)NCc4ccc(-c5ccccc5)cc4)occc3=O)cc2)OC1(C)C
IC50 [10]: > 1000 µM

COC(=O)[C@]1([Se]c2ccccc2)C[C@]2(C)C(=O)[C@]1(C)C(c1ccccc1)=C2c1ccccc1
Activity [11]: <=80%

CCN(CC)c1ccc2c(c1)Oc1cc(OCc3ccc(B4OC(C)(C)C(C)(C)O4)cc3)c(COC(=O)OC3(CC)C(=O)OCc4c3cc3n(c4=O)Cc4cc5ccccc5nc4-3)cc1C21c2ccccc2CN1CCNC(=O)CCC(NC(=O)c1ccc(NCc2cnc3[nH]c(N)nc(=O)c3n2)cc1)C(=O)O (stereo not drawn)
Activity [12]: 70% | Activity [13]: 100%

CC1(C)OB(c2ccc(COC(=O)Nc3ccc(N(CCCl)CCCl)cc3)cc2)OC1(C)C
Activity [4]: 47% | GI50 [14]: < 1 µM | GI50 [15]: < 1 µM | GI50 [16]: < 1 µM | GI50 [17]: < 1 µM | GI50 [1]: < 1 µM | GI50 [18]: < 1 µM | GI50 [19]: < 1 µM | GI50 [20]: < 1 µM | GI50 [21]: < 1 µM | GI50 [22]: < 1 µM | GI50 [23]: < 1 µM | GI50 [24]: < 1 µM | GI50 [25]: < 1 µM | GI50 [26]: < 1 µM | GI50 [27]: < 1 µM | GI50 [28]: < 1 µM | GI50 [29]: < 1 µM | GI50 [30]: < 1 µM | GI50 [31]: < 1 µM | GI50 [32]: < 1 µM | GI50 [33]: < 1 µM | GI50 [34]: < 1 µM | GI50 [35]: < 1 µM | GI50 [36]: < 1 µM | GI50 [37]: < 1 µM

CC1(C)OB(c2ccc(COn3c(C(=O)NCc4ccc(-c5ccccc5)cc4)cccc3=O)cc2)OC1(C)C
IC50 [10]: > 1000 µM | IC50 [38]: 0.0967 µM | Papp [39]: 6.35 ×10⁻⁶ cm/s | EC50 [40]: 0.32 µM | bioavailability [41]: 68.1%

COc1cccc2c1C(=O)c1c(O)c3c(c(O)c1C2=O)C[C@@](O)(C(=O)CO)C[C@@H]3O[C@H]1C[C@H](N)[C@H](O)[C@H](C)O1 [DOXORUBICIN]
Activity [42]: 20%

O=C(CCCCCCC(=O)Nc1ccccc1)NO [VORINOSTAT]
Activity [43]: 50%

CC1(C)OB(c2ccc(COC(=O)ONC(=O)CCCCCCC(=O)Nc3ccccc3)cc2)OC1(C)C
EC50 [44]: > 1 µM | Activity [43]: 80%
